In US20080009418A1, “Selective Inhibitors” (Alchemia LTD., priority 2004, published 2008):

How the values were obtained:
[1] = molecular target: T1, Human δ-opioid (DOP) (Homo sapiens, UniProt P41143); test: Radioligand binding, human δ-opioid (DOP) membranes, FlashPlate, [3H]-Bremazocine; conditions: compound at 10 μM; for A1 radioligand binding inhibition: human δ-opioid (DOP) membranes; for A1: inhibition of radioligand binding: FlashPlate
T1 construct: purchased Perkin Elmer Biosignal
How it was run: (§1)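 Cloned human receptor membranes were coated onto FlashPlate wells and incubated with radioligand and compound (added from a 0.5 mM DMSO daughter plate) for 1 hour at room temperature in the dark. Scintillation counting gave percent inhibition, with DMSO defining total and reference ligand defining non-specific binding.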

[2] = molecular target: T2, Human κ-Opioid (KOP) (Homo sapiens, UniProt P41145); test: Radioligand binding, human κ-opioid (KOP) membranes, filtration, [3H]-Diprenorphine; conditions: compound at 10 μM; for A2 radioligand binding inhibition: human κ-opioid (KOP) membranes; for A2: inhibition of radioligand binding: filtration
T2 construct: purchased Perkin Elmer Biosignal
How it was run: (§2)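 Membranes from cloned human receptors were incubated with compound and radioligand for 1 hour at room temperature. Bound ligand was collected on 0.3% PEI-soaked filters, washed with cold 50 mM Tris-HCl pH 7.4, and counted by scintillation. Percent inhibition was computed against DMSO totals and reference-ligand nonspecific wells.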

[3] = molecular target: T3, Human Melanocortin (MC3) (Homo sapiens, UniProt P41968); test: Radioligand binding, human melanocortin MC3 membranes, FlashPlate, [125I]-NDP-αMSH; conditions: compound at 10 μM; for A3 radioligand binding inhibition: human melanocortin MC3 membranes; for A3: inhibition of radioligand binding: FlashPlate
T3 construct: purchased Perkin Elmer Biosignal
How it was run: as §1

[4] = molecular target: T4, Human Melanocortin (MC4) (Homo sapiens, UniProt P32245); test: Radioligand binding, human melanocortin MC4 membranes, FlashPlate, [125I]-NDP-αMSH; conditions: compound at 10 μM; for A4 radioligand binding inhibition: human melanocortin MC4 membranes; for A4: inhibition of radioligand binding: FlashPlate
T4 construct: purchased Perkin Elmer Biosignal
How it was run: as §1

[5] = molecular target: T5, Human melanocortin (MC5) (Homo sapiens, UniProt P33032); test: Radioligand binding, human melanocortin MC5 membranes, FlashPlate, [125I]-NDP-αMSH; conditions: compound at 10 μM; for A5 radioligand binding inhibition: human melanocortin MC5 membranes; for A5: inhibition of radioligand binding: FlashPlate
T5 construct: purchased Perkin Elmer Biosignal
How it was run: as §1

[6] = molecular target: T6, Human melanin-concentrating hormone (MCH1) (Homo sapiens, UniProt Q99705); test: Radioligand binding, human melanin-concentrating hormone MCH1 membranes, FlashPlate, [125I]-S36057; conditions: compound at 10 μM; for A6 radioligand binding inhibition: human MCH1 membranes; for A6: inhibition of radioligand binding: [125I]-S36057, FlashPlate
T6 construct: purchased Perkin Elmer Biosignal
How it was run: as §1

[7] = molecular target: T7, Human μ-opioid (MOP) (Homo sapiens, UniProt P35372); test: Radioligand binding, human μ-opioid (MOP) membranes, FlashPlate, [3H]-Naloxone; conditions: compound at 10 μM; for A7 radioligand binding inhibition: human μ-opioid (MOP) membranes; for A7: inhibition of radioligand binding: FlashPlate
T7 construct: purchased Perkin Elmer Biosignal
How it was run: as §1

[8] = molecular target: T8, Human neurokinin (NK1) (Homo sapiens, UniProt P25103); test: Radioligand binding, human neurokinin NK1 membranes, filtration, [125I]-Substance P; conditions: compound at 10 μM; for A8 radioligand binding inhibition: human neurokinin NK1 membranes; for A8: inhibition of radioligand binding: filtration
T8 construct: purchased Perkin Elmer Biosignal
How it was run: as §2

[9] = molecular target: T9, Human neuropeptide Y (NPY-Y1) (Homo sapiens, UniProt P25929); test: Radioligand binding, human neuropeptide Y NPY-Y1 membranes, FlashPlate, [125I]-PYY; conditions: compound at 10 μM; for A9 radioligand binding inhibition: human NPY-Y1 membranes; for A9: inhibition of radioligand binding: FlashPlate
T9 construct: purchased Perkin Elmer Biosignal
T9 sequence (P25929 1-384): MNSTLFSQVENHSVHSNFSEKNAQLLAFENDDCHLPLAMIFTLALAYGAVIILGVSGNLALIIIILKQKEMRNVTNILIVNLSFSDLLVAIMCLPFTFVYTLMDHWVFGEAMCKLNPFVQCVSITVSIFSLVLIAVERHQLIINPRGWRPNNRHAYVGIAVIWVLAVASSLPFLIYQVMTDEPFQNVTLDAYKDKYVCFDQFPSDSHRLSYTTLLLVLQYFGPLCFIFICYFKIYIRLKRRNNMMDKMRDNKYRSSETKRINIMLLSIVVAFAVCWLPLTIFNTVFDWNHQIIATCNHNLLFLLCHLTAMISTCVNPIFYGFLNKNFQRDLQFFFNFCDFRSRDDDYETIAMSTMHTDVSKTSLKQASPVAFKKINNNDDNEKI
How it was run: as §1

[10] = molecular target: T10, Human opioid (ORL1) (Homo sapiens, UniProt P41146); test: Radioligand binding, human opioid ORL1 membranes, FlashPlate, [125I]-Nociceptin; conditions: compound at 10 μM; for A10 radioligand binding inhibition: human ORL1 membranes; for A10: inhibition of radioligand binding: FlashPlate
T10 construct: purchased Perkin Elmer Biosignal
How it was run: as §1

[11] = molecular target: T11, Mouse urotensin (mUR2) (Mus musculus, UniProt Q8VIH9); test: Radioligand binding, mouse urotensin mUR2 membranes, FlashPlate, [125I]-Urotensin II; conditions: compound at 10 μM; for A11 radioligand binding inhibition: mouse urotensin mUR2 membranes; for A11: inhibition of radioligand binding: FlashPlate
T11 construct: purchased Perkin Elmer Biosignal
T11 sequence (Q8VIH9 1-385): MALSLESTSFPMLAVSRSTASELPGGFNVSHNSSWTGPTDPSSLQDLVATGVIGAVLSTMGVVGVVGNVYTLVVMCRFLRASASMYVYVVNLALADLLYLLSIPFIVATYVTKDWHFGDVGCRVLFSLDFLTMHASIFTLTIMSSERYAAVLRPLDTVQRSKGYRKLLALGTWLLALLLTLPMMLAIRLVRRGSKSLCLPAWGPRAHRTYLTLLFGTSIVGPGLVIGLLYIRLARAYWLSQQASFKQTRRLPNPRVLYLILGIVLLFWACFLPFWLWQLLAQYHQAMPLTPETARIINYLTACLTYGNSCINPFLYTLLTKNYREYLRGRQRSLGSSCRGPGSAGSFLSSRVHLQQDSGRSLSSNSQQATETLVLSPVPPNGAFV
How it was run: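 Cloned mouse urotensin (mUR2) receptor membranes from Perkin Elmer Biosignal were immobilized in FlashPlate microplates using a proprietary coating. Each well got 19.5 μl buffer, then 0.5 μl of DMSO, reference ligand, or compound. Adding 5 μl of [125I]-Urotensin II, diluted to 5× final concentration in binding buffer, started binding. Plates were sealed with TopSeal-A and incubated 1 hour at room temperature in the dark. Wells were counted for 30 seconds each on a TopCount after a 60-second delay, and percentage inhibition was calculated.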

T7 sequence (P35372 whole entry): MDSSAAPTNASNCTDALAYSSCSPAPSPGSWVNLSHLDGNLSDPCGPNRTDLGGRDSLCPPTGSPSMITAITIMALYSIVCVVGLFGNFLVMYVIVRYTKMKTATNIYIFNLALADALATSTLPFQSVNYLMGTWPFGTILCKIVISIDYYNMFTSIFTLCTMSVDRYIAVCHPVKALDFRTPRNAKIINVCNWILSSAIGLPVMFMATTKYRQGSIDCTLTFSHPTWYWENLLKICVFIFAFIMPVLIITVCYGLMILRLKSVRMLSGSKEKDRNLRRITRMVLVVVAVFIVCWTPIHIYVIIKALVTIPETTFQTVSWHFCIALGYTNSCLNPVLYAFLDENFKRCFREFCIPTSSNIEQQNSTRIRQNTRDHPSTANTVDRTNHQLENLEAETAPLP
T5 sequence (P33032 whole entry): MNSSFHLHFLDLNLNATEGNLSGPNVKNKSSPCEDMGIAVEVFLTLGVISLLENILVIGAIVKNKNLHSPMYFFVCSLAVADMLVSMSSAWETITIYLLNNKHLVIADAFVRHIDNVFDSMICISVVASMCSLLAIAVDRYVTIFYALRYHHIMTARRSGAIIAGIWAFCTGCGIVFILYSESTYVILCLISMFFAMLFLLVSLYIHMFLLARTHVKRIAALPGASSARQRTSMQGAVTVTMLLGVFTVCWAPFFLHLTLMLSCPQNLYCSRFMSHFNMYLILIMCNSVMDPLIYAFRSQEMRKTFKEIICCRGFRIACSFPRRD
T1 sequence (P41143 whole entry): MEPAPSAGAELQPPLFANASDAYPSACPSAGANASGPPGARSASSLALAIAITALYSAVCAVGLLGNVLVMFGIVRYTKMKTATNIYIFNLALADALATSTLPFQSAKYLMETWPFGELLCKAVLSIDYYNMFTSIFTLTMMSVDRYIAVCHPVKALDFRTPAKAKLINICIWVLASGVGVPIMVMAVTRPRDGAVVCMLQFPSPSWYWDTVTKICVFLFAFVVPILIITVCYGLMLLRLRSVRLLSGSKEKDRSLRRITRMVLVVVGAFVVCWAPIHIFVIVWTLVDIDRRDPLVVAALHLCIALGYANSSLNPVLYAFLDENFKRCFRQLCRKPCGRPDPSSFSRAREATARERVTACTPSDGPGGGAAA
T10 sequence (P41146 whole entry): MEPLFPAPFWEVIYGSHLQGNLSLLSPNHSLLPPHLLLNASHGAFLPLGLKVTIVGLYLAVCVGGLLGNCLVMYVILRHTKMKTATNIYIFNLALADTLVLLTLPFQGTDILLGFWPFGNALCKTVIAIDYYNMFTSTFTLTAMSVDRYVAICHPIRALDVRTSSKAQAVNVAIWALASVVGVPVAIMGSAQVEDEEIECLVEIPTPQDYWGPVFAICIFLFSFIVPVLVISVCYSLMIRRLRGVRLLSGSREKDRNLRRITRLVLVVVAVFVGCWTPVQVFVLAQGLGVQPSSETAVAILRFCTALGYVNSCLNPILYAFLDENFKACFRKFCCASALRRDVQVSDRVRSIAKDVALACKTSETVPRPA
T2 sequence (P41145 whole entry): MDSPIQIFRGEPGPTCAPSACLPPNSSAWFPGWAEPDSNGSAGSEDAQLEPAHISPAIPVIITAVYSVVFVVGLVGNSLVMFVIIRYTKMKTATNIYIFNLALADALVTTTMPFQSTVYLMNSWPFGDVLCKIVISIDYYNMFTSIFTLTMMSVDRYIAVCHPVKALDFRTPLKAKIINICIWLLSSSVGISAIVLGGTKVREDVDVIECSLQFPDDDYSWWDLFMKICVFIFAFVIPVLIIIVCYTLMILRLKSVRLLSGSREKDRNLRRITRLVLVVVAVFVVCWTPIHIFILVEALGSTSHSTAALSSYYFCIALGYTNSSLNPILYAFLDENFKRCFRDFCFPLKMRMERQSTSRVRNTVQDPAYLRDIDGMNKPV
T6 sequence (Q99705 whole entry): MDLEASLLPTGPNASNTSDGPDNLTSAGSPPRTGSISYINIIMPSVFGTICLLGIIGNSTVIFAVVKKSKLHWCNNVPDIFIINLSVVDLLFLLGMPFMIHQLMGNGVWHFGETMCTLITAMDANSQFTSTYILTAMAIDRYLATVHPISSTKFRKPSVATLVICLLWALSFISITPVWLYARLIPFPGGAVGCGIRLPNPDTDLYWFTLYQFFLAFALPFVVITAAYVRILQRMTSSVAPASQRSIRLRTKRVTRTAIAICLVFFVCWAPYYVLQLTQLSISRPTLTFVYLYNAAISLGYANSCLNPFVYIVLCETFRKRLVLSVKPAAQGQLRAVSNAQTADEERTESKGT
T4 sequence (P32245 whole entry): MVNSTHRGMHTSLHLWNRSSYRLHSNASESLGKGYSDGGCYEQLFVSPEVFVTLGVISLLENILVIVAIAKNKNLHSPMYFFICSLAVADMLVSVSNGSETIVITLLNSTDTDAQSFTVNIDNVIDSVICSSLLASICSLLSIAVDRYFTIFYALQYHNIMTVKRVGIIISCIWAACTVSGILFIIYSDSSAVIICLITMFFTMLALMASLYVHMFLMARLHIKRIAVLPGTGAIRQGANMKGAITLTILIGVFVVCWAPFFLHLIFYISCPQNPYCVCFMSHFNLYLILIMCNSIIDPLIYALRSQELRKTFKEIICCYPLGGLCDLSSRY
T3 sequence (P41968 whole entry): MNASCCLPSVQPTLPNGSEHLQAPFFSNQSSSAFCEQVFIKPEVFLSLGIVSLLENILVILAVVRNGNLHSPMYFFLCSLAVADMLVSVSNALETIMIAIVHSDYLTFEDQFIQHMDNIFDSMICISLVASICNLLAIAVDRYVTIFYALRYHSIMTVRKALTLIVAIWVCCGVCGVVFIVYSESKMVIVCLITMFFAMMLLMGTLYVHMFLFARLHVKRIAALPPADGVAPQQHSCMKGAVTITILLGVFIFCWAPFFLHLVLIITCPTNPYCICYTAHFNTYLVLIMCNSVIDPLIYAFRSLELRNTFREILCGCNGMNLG
T8 sequence (P25103 whole entry): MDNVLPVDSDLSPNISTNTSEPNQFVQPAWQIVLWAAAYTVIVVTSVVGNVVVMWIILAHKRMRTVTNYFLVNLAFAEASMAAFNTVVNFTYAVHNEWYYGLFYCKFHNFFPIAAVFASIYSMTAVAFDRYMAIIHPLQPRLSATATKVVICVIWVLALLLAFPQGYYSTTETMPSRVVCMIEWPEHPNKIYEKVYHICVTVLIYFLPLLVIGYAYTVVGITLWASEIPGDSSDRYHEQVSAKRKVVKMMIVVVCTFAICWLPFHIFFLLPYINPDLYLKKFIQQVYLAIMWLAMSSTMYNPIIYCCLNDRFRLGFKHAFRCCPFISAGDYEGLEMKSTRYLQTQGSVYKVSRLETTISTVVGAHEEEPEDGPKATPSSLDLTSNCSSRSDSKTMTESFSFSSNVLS

SMILES	A1 radioligand binding inhibition [1]	A2 radioligand binding inhibition [2]	A3 radioligand binding inhibition [3]	A4 radioligand binding inhibition [4]	A5 radioligand binding inhibition [5]	A6 radioligand binding inhibition [6]	A7 radioligand binding inhibition [7]	A8 radioligand binding inhibition [8]	A9 radioligand binding inhibition [9]	A10 radioligand binding inhibition [10]	A11 radioligand binding inhibition [11]	A1: inhibition of radioligand binding ([1]; [3H]-Bremazocine)	A2: inhibition of radioligand binding ([2]; [3H]-Diprenorphine)	A3: inhibition of radioligand binding ([3]; [125I]-NDP-αMSH)	A4: inhibition of radioligand binding ([4]; [125I]-NDP-αMSH)	A5: inhibition of radioligand binding ([5]; [125I]-NDP-αMSH)	A6: inhibition of radioligand binding [6]	A7: inhibition of radioligand binding ([7]; [3H]-Naloxone)	A8: inhibition of radioligand binding ([8]; [125I]-Substance P)	A9: inhibition of radioligand binding ([9]; [125I]-PYY)	also measured
CO[C@H]1[C@H](O)[C@@H](COCc2ccccc2)OC(OCc2ccc3ccccc3c2)[C@@H]1NC(=O)CCCN (stereo partly drawn) [compound 76]	− (“−” indicates less than 50% inhibition at 10 μM)	− (“−” indicates less than 50% inhibition at 10 μM)	− (“−” indicates less than 50% inhibition at 10 μM)	− (“−” indicates less than 50% inhibition at 10 μM)	− (“−” indicates less than 50% inhibition at 10 μM)	− (“−” indicates less than 50% inhibition at 10 μM)	− (“−” indicates less than 50% inhibition at 10 μM)	+ (“+” indicates greater than 50% inhibition at 10 μM)	− (“−” indicates less than 50% inhibition at 10 μM)	− (“−” indicates less than 50% inhibition at 10 μM)	− (“−” indicates less than 50% inhibition at 10 μM)										
COC[C@H]1OC(OCc2ccc(Cl)cc2)[C@H](NC(=O)CCCN)[C@@H](OCc2ccccc2)[C@@H]1O (stereo partly drawn) [compound 35]	− (“−” indicates less than 50% inhibition at 10 μM)	− (“−” indicates less than 50% inhibition at 10 μM)	− (“−” indicates less than 50% inhibition at 10 μM)	− (“−” indicates less than 50% inhibition at 10 μM)	− (“−” indicates less than 50% inhibition at 10 μM)	− (“−” indicates less than 50% inhibition at 10 μM)	− (“−” indicates less than 50% inhibition at 10 μM)	+ (“+” indicates greater than 50% inhibition at 10 μM)	− (“−” indicates less than 50% inhibition at 10 μM)	− (“−” indicates less than 50% inhibition at 10 μM)	− (“−” indicates less than 50% inhibition at 10 μM)										
COC[C@H]1OC(OCc2ccc(-c3ccccc3)cc2)[C@H](NC(=O)CCNC(=N)N)[C@@H](OCc2ccc3ccccc3c2)[C@@H]1O (stereo partly drawn) [compound 4]	− (“−” indicates less than 50% inhibition at 10 μM)	− (“−” indicates less than 50% inhibition at 10 μM)	− (“−” indicates less than 50% inhibition at 10 μM)	− (“−” indicates less than 50% inhibition at 10 μM)	+ (“+” indicates greater than 50% inhibition at 10 μM)	+ (“+” indicates greater than 50% inhibition at 10 μM)	− (“−” indicates less than 50% inhibition at 10 μM)	+ (“+” indicates greater than 50% inhibition at 10 μM)	− (“−” indicates less than 50% inhibition at 10 μM)	− (“−” indicates less than 50% inhibition at 10 μM)	− (“−” indicates less than 50% inhibition at 10 μM)										
COCC1OC(OCc2ccc(Cl)cc2)C(NC(=O)CCCN)C(OCc2ccc(-c3ccccc3)cc2)C1O (stereo not drawn) [compound 207]												− (“−” indicates less than 50% inhibition at 10 μM)	− (“−” indicates less than 50% inhibition at 10 μM)	+ (“+” indicates greater than 50% inhibition at 10 μM)	− (“−” indicates less than 50% inhibition at 10 μM)	+ (“+” indicates greater than 50% inhibition at 10 μM)	− (“−” indicates less than 50% inhibition at 10 μM)	− (“−” indicates less than 50% inhibition at 10 μM)	+ (“+” indicates greater than 50% inhibition at 10 μM)	− (“−” indicates less than 50% inhibition at 10 μM)	A10: inhibition of radioligand binding ([10]; [125I]-Nociceptin): − (“−” indicates less than 50% inhibition at 10 μM); A11: inhibition of radioligand binding ([11]; [125I]-Urotensin II): − (“−” indicates less than 50% inhibition at 10 μM)
COCC1OC(OCc2ccc3ccccc3c2)C(NC(=O)CN)C(OCc2ccc(Cl)cc2)C1O (stereo not drawn) [compound 235]												+ (“+” indicates greater than 50% inhibition at 10 μM)	− (“−” indicates less than 50% inhibition at 10 μM)	− (“−” indicates less than 50% inhibition at 10 μM)	− (“−” indicates less than 50% inhibition at 10 μM)	− (“−” indicates less than 50% inhibition at 10 μM)	− (“−” indicates less than 50% inhibition at 10 μM)	− (“−” indicates less than 50% inhibition at 10 μM)	+ (“+” indicates greater than 50% inhibition at 10 μM)	− (“−” indicates less than 50% inhibition at 10 μM)	A10: inhibition of radioligand binding ([10]; [125I]-Nociceptin): − (“−” indicates less than 50% inhibition at 10 μM); A11: inhibition of radioligand binding ([11]; [125I]-Urotensin II): − (“−” indicates less than 50% inhibition at 10 μM)
COC[C@H]1OC(OCc2ccc3ccccc3c2)[C@H](NC(=O)CNC(=N)N)[C@@H](OCc2cccc(O)c2)[C@@H]1O (stereo partly drawn) [compound 133]																					A1 radioligand binding, percentage inhibition ([1]; [3H]-Bremazocine): − (“−” indicates less than 50% inhibition at 10 μM); A2 radioligand binding, percentage inhibition ([2]; [3H]-Diprenorphine): − (“−” indicates less than 50% inhibition at 10 μM); A3 radioligand binding, percentage inhibition ([3]; [125I]-NDP-αMSH): − (“−” indicates less than 50% inhibition at 10 μM); A4 radioligand binding, percentage inhibition ([4]; [125I]-NDP-αMSH): − (“−” indicates less than 50% inhibition at 10 μM); A5 radioligand binding, percentage inhibition ([5]; [125I]-NDP-αMSH): − (“−” indicates less than 50% inhibition at 10 μM); A6 radioligand binding, percentage inhibition ([6]; [125I]-S36057): − (“−” indicates less than 50% inhibition at 10 μM); A7 radioligand binding, percentage inhibition ([7]; [3H]-Naloxone): + (“+” indicates greater than 50% inhibition at 10 μM); A8 radioligand binding, percentage inhibition ([8]; [125I]-Substance P): − (“−” indicates less than 50% inhibition at 10 μM); A9 radioligand binding, percentage inhibition ([9]; [125I]-PYY): − (“−” indicates less than 50% inhibition at 10 μM); A10 radioligand binding, percentage inhibition ([10]; [125I]-Nociceptin): − (“−” indicates less than 50% inhibition at 10 μM); A11 radioligand binding, percentage inhibition ([11]; [125I]-Urotensin II): − (“−” indicates less than 50% inhibition at 10 μM)
